Assays:
Type in all cases: in vivo
[1] = tested on: adult cat fleas (Ctenocephalides felis); test: Ctenocephalides felis in-vitro contact test, adult cat flea; settings: Ctenocephalides felis; 1 μg/cm^2 (=100 g/ha), after 48 hours; read-out: efficacy (fleas dead or moribund)
[2] = tested on: larvae of the banded cucumber beetle (Diabrotica balteata); test: Diabrotica balteata spray test; settings: Diabrotica balteata, 168 h; 100 g/ha (=32 μg/well), wheat seeds, after 7 days; read-out: efficacy (seedlings grown)
How it was run: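 Efficacy was read 7 days after infesting each unit with 10–20 banded cucumber beetle larvae, as % of seedlings growing like untreated, uninfested controls. Before infestation, wheat seeds germinated 1 day on agar (5 per well) were sprayed with the active ingredient. The active was formulated in acetone/DMF and diluted in water containing emulsifier.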

[3] = tested on: fall armyworm larvae (Spodoptera frugiperda); test: Spodoptera frugiperda spray test (SPODFR); settings: in Zea mays, 168 h
How it was run: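 Compound in acetone/dimethylformamide, diluted with water containing 1000 ppm alkylarylpolyglycol ether emulsifier. Maize leaf sections sprayed, dried, then infested with fall armyworm larvae. Mortality (%) scored after 7 days, 100% meaning all caterpillars killed.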

[4] = tested on: green peach aphid (Myzus persicae); test: Myzus persicae spray test (MYZUPE); settings: in Brassica rapa, foliar, 120 h
Method: Myzus persicae—Spray Test
Solvent: 78.0 parts by weight acetone • 1.5 parts by weight dimethylformamide
(§1) Emulsifier: alkylarylpolyglycol ether
(§2) To produce a suitable preparation of active compound, 1 part by weight of active compound is mixed with the stated amount of solvents and is diluted with water, containing an emulsifier concentration of 1000 ppm, to the desired concentration. Further test concentrations are prepared by dilution with emulsifier containing water.
Chinese cabbage (Brassica pekinensis) leaf disks infected with all instars of the green peach aphid (Myzus persicae), are sprayed with a preparation of the active ingredient of the desired concentration.
(§3) After 5 days mortality in % is determined. 100% means all aphids have been killed and 0% means none of the aphids have been killed.
Myzus persicae—Spray Test (MYZUPE
After the specified period of time, mortality in % is determined. 100% means all aphids have been killed and 0% means none of the aphids have been killed.

[5] = tested on: adult Blattella germanica strain PAULINIA; test: Blattella germanica test (BLTTGE surface treatment & contact assay); settings: surface concentration 20 mg/m^2, 30 min exposure, 24 hours after contact, read-out: efficacy (mortality)
Method: Blattella germanica Test (BLTTGE Surface Treatment & Contact Assay
(§4) Solvent: Aceton+2000 ppm rapeseed oil methyl ester (RME)
(§5) In order to produce a sufficient, active ingredient containing solution it is necessary to solve the test compound in the solvent-mix (acetone at 2 mg/ml/RME 2000 ppm). This solution is pipetted onto a glazed tile and after evaporation of the acetone, adult animals of the species Blattella germanica strain PAULINIA are placed onto the dried surface. The exposure time is 30 minutes.
Mortality in percent (%) is determined 24 hours after contact of the insects to the treated surface. 100% mortality means that all tested insects are dead, whereas 0% means that no insect died.

[6] = tested on: adult brown dog ticks (Rhipicephalus sanguineus); test: Rhipicephalus sanguineus in-vitro contact test, adult brown dog ticks; settings: Rhipicephalus sanguineus; 1 μg/cm^2 (=100 g/ha), after 48 hours; read-out: efficacy (ticks dead or moribund)
How it was run: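 Read-out: % efficacy as dead or moribund ticks, judged 48 h after exposure by failure to climb away from a 45-50° C heating plate within 5 min. Tubes were coated with acetone solution (900 ppm = 5 μg/cm^2 surface dose) and held 5-10 adults each at room temperature.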

[7] = tested on: adult mosquitoes Aedes aegypti strain MONHEIM; test: Aedes aegypti test (AEDSAE surface treatment & contact assay); settings: surface concentration 4 mg/m^2, 30 min exposure, 24 hours after contact, read-out: efficacy (mortality)
Method: Aedes aegypti Test (AEDSAE Surface Treatment & Contact Assay
as §4
as §5, with “mosquitoes” for “animals”, “Aedes aegypti” for “Blattella germanica”, “MONHEIM” for “PAULINIA”, “minutes. Mortality in percent (%) is determined 24 hours after contact of the insects to the treated surface. 100% mortality means that all tested insects are dead, whereas 0% means that no insect died.” for “minutes.”

[8] = tested on: brown planthopper (Nilaparvata lugens); test: Nilaparvata lugens spray test; settings: Nilaparvata lugens, in Oryza sativa, 96 h
Method: Nilaparvata lugens—Spray Test
(§6) Solvent: 78.0 parts by weight of acetone • • 1.5 parts by weight of dimethylformamide
as §1, §2
Rice plants (Oryza sativa) are sprayed with a preparation of the active ingredient of the desired concentration and the plants are infested with the brown planthopper (Nilaparvata lugens).
After 4 days mortality in % is determined. 100% means all planthoppers have been killed and 0% means none of the planthoppers have been killed.

[9] = tested on: larvae of the southern green stink bug (Nezara viridula); test: Nezara viridula spray test; settings: Nezara viridula, in Hordeum vulgare, 96 h
Method: Nezara viridula—Spray Test
as §6, §1
as §2, with “solvent,” for “solvents”, “and the concentrate” for “and”
Barley plants (Hordeum vulgare) are sprayed with a test solution containing the desired concentration of the active ingredient and are infested with larvae of the southern green stink bug (Nezara viridula).
After 4 days mortality in % is determined. 100% means all the stink bugs have been killed; 0% means none of the stink bugs have been killed.

[10] = tested on: Rhipicephalus (Boophilus) microplus larvae (strain Parkhurst, resistant against synthetic pyrethroids); test: Rhipicephalus (Boophilus) microplus in-vitro contact test, larval cattle tick; settings: Rhipicephalus microplus; 1 μg/cm^2 (=100 g/ha), after 48 hours; read-out: efficacy (larvae dead or moribund)
How it was run: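 Compound in acetone coated on glass tube inner walls; 900 ppm solution gives 5 μg/cm^2. Pyrethroid-resistant Parkhurst larvae (20-50 per tube) held at 27° C., 85% relative humidity; efficacy assessed after 48 h by scoring negative geotactic behavior after tapping larvae to tube bottom.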

[11] = tested on: green peach aphid (Myzus persicae); test: Myzus persicae oral test; settings: 120 h
Method: Solvent: 100 parts by weight acetone
To produce a suitable preparation of active compound, 1 part by weight of active compound is mixed with the stated amount of solvent, and the concentrate is diluted with water to the desired concentration.
50 μL compound solution is filled in microtiter plates and 150 μL IPL41 insect medium (33%+15% sugar) is added to obtain a total volume of 200 μL per well. Afterwards the plates are sealed with parafilm through which a mixed population of the green peach aphid (Myzus persicae) can suck on the compound preparation.
as §3

[12] = tested on: adult engorged female ticks (Rhipicephalus microplus); test: Rhipicephalus (Boophilus) microplus injection test; settings: 4 μg/tick, after 7 days
Method: Rhipicephalus (Boophilus) Microplus—Injection Test
(§7) Solvent: Dimethyl Sulfoxide
To produce a suitable preparation of active compound, 10 mg of active compound are dissolved in 0.5 mL solvent, and the concentrate is diluted with solvent to the desired concentration.
Five adult engorged female ticks (Rhipicephalus microplus) are injected with 1 μL compound solution into the abdomen. The ticks are transferred into replica plates and incubated in a climate chamber.
After 7 days egg deposition of fertile eggs is monitored. Eggs where fertility is not visible are stored in a climate chamber till hatching after about 42 days. An efficacy of 100% means all eggs are infertile; 0% means all eggs are fertile.

[13] = tested on: adult unfed cat fleas (Ctenocephalides felis); test: Ctenocephalides felis oral test; settings: 48 h, 100 ppm in citrated cattle blood, after 2 days
Method: Ctenocephalides felis—Oral Test
as §7
To produce a suitable preparation of active compound, 10 mg of active compound are dissolved in 0.5 mL solvent, and the concentrate is diluted with citrated cattle blood to the desired concentration.
Approximately 20 adult unfed cat fleas (Ctenocephalides felis) are placed in a flea chamber whose top and bottom is covered with gauze. A chamber whose bottom is sealed with parafilm, is filled with the blood-compound solution and placed on top of the flea chamber, so that the fleas can suck the blood. The blood chamber is heated to 37° C. whereas the flea chamber is kept at room temperature.
After 2 days mortality in % is determined. 100% means all the fleas have been killed; 0% means none of the fleas have been killed.

SMILES	pest or weed control at 1 µg/cm2 [1] [%]	pest or weed control at 32 µg/disc, 100 g/ha [2] [%]	mortality at 100 g/ha [3] [%]	mortality at 100 g/ha [4] [%]	mortality at 20 mg/m2 [5] [%]	pest or weed control at 1 µg/cm2, 100 g/ha [6] [%]	mortality at 4 mg/m2 [7] [%]	mortality at 500 g/ha [8] [%]	mortality at 500 g/ha [9] [%]	pest or weed control at 1 µg/cm2 [10] [%]	mortality at 20 ppm [11] [%]	efficacy (infertile eggs) [12] [%]	mortality at 100 ppm [13] [%]
CNC(=O)c1cnc(-n2ncnc2[C@H](C)NC(=O)c2cc(OC(F)(F)F)cc(S(C)(=O)=O)c2)cn1 [Example I-019]	100	100	100	90	80 to 100	100	80 to 100	100	100	100	–	–	–
C[C@H](NC(=O)c1cc(C(F)(F)F)cc(S(C)(=O)=O)c1)c1ncnn1-c1cnc(C(N)=O)cn1 [Example I-030]	–	100	–	–	–	–	–	–	90	–	100	–	–
CCN(C)C(=O)c1cnc(-n2ncnc2[C@H](C)NC(=O)c2cc(OC(F)(F)F)cc(S(C)(=O)=O)c2)cn1 [Example I-018]	100	100	100	100	–	100	–	100	100	90	100	–	–
C[C@H](NC(=O)c1cc(OC(F)(F)F)cc(S(C)(=O)=O)c1)c1ncnn1-c1cnc(C(=O)N(C)C2CC2)cn1 [Example I-004]	100	100	100	90	–	100	–	100	70	100	100	100	100

Reference: US20240368125A1, “NOVEL PYRAZINYL-TRIAZOLE COMPOUNDS AS PESTICIDES” (Bayer Aktiengesellschaft, priority 2021, published 2024)
